The record followed here is US4713376A, “Dementia-improving and therapeutic agents” (Toyama Chemical Co., Ltd., priority 1985, dated 1987).

Data set [1] can be described thus: Transference into brain and stimulation of cerebral metabolism. The settings on record: in vivo.
The format of data set [2] is physicochemical. The settings on record: 10 days, relative humidity 55%; for Appearance: room temperature (30° C.); for Decomposition percentage: hydroxylamine method, 30° C. How it is done: (§1) Next, among the present compounds [I], α-acetoxy-α-methylaceticacid trimethylammonioethyl ester toluene-4-sulfonate (hereinafter referred to as ALT) and bis(α-acetoxy-α-methylacetic acid trimethylammonioethyl ester) naphthalene-1,5-disulfonate (general name: aclatonium napadisilate) were […] for mouse acute toxicity by intraperitoneal injection as well as for hygroscopicity and stability.
(§2) Stored for 10 days at room temperature (30° C.) at a relative
*2 Measured in accordance with the hydroxylamine method for ester (Jikken
Kagaku Koza, Vol. 24 Seibutsu Kagaku II, p 253 to 255, Maruzen).
Decomposition percentage (%) = [1 - (absorbance of test
sample)/(absorbance of standard solution)] × 100

Data set [3] can be described thus: Mouse acute toxicity by intraperitoneal injection. The settings on record: in vivo, ip.
Excerpt: as §1

A further data set concerns Alzheimer's disease. As to the kind of experiment: Clinical case, overall improvement degree and neuropsychiatric symptoms, Alzheimer's disease. It is filed as in vivo, patients. How it is done: (§3) The degree of dementia was diagnosed in patients on the basis of DSM-III criteria with reference to the neuropsychiatric symptoms and findings of the CT scan of the head regions.
(§4) The overall improvement degree of the present drug was evaluated from the neuropsychiatric symptoms, scores of activity of daily living and Hasegawa's rating scales.
Case two a person, Alzheimer's disease (Overall severity: Moderate degree)
They became occasionally aware of slight change of character from 8 years ago, and they lived without specific changes, but they became spiritless and not to express their feeling from 3 years ago. At the admission, they could not work entirely and was spiritless, and had contact disturbance with other patients, and decrease of memory power and judgement power were noted. […] The atrophy of anterior lobe was remarkably noted at the finding of CT scan of head regions at the admission.

Another data set relates to patients. Put plainly: Side effects in the clinical cases. The conditions noted are these: all of the above clinical cases. It is filed as in vivo.
A short description of data set [4]: Hygroscopicity on storage. The format is physicochemical. The settings on record: (Increased weight)/(Original weight) × 100; 10 days, 30° C., relative humidity 55%. How it is done: as §1, §2
*1 Hygroscopicity (%) = (Increased weight)/(Original weight) × 100

For data set [5], the system named is senile dementia of Alzheimer's type. Put plainly: Clinical cases, overall improvement degree and neuropsychiatric symptoms, senile dementia of Alzheimer's type. It is filed as in vivo, patients. Here is the method:
as §3, §4
Case three senile dementia of Alzheimer's type (Overall severity: Marked high degree)
They began to have a forgetfulness from approx. 4 years ago, and became spiritless and became unable to work, and became not to express their feeling, and had wanderling impulsion. The cerebral atrophy was generally noted by the finding of CT scan of head regions at the admission.
Case four senile dementia of Alzheimer's type (Overall severity: Marked high degree)
They had occasionally a forgetfulness from approx. 10 years ago, and became unable to do agricultural work from approx. 4 years ago. The diffuse cerebral atrophy was noted by the finding of CT scan of head regions at the admission.
Case five senile dementia of Alzheimer's type (Overall severity: Moderate degree)
They began to have a forgetfulness from approx. 2 years ago, and became unable to do household affairs from 1 year ago, and became unable to distinguish their familial faces. The cerebral atrophy and enlargement of cerebral ventricle were noted by the finding of CT scan of head regions at the admission. The treatment was changed to the administration of 300 mg/day of the present drug because the efficacy was ineffective with other cerebral metabolic improvement drugs and cerebral-vasodilators.
Case one senile dementia of Alzheimer's type (overall severity: Moderate degree)
They began to have a forgetfulness and spiritlessness after operation of fracture of neck of femur from 10 years ago. The disorientation was strongly noted from 2-3 years ago. The cerebral atrophy and enlargement of cerebral ventricle were noted by the finding of CT scan of head regions at the admission. The efficacy was ineffective with other various drugs than the present drug.

A further data set deals with dementia. As to the kind of experiment: Neuropsychiatric symptoms accompanying dementia and cognitive function, summary of clinical cases. The format is in vivo, patients. How it is done: as §3, §4

For `CC(=O)OC(C)C(=O)OCC[N+](C)(C)C` (stereo not drawn) [Aclatonium napadisilate, bis(α-acetoxy-α-methylacetic acid trimethylammonioethyl ester) naphthalene-1,5-disulfonate], in data set [1], the cerebral metabolism entry was “stimulated” and the transference into brain result was “found”. Further, in data set [2], the Appearance entry is “No change” and the Decomposition percentage is recorded as 0.2%. Further, the LD50 (in general, the dose expected to kill half of the subjects tested) in data set [3] amounted to 636 mg/kg. Also, in the data set on Alzheimer's disease (Clinical Case 5), the defecation entry is on record as “defecation became smooth”. For the same compound, the “movement frequency and spontaneousness” value with Alzheimer's disease (Clinical Case 5, 4th week) is “increase of movement frequency and improvement of decrease of spontaneousness”. Further, the overall improvement degree entry in the data set with Alzheimer's disease (Clinical Case 5, Moderate degree) was “improvement”. For the same compound, the side effect result in the data set on patients is given as “no side effect”. The same compound had a Hygroscopicity in data set [4] of 0.1%. For the same compound, in data set [5] (Clinical Case 1, 300 mg/day, 2nd week), the “neuropsychiatric symptoms and activity of daily living” value is “they could gait to outside of room at the 2nd week, and their movement behavior was improved, and spontaneousness increased and feeling became clear”. Besides, the overall improvement degree result in data set [5] (Clinical Case 1, Marked high degree, 300 mg/day) is reported as “improvement”. The “neuropsychiatric symptoms (spontaneousness, conversation)” value in data set [5] (Clinical Case 2) was “spontaneousness increased, and conversation with other patients increased, and they had favorable communication and became fortunate”. The overall improvement degree result in data set [5] (Clinical Case 2, Marked high degree) is “slight improvement”. In addition, in data set [5] (Clinical Case 3, 300 mg/day), the “decrease of spontaneousness and disturbance of emotion” value is “improved”; the intellectual function result is listed as “No changes”. In data set [5] (Clinical Case 3, 300 mg/day, approx. 2nd week after administration), the “activity of daily living and expression” value is “they became able to sit and gait, and eat food by themself and expression became clear”. Further, the overall improvement degree result in data set [5] (Clinical Case 3, Moderate degree, 300 mg/day) is “slight improvement”. For the same compound, the “conversation frequency and activity of daily living” value in data set [5] (Clinical Case 4, 300 mg/day, from the 2nd week) is “their conversation frequency with other patients increased and they became able to go out from their room and occasionally go to toilet”. In data set [5] (Clinical Case 4, Moderate degree, 300 mg/day), the overall improvement degree entry was “slight improvement”. Also, in the data set on dementia (clinical cases), the “effect on cognitive function” value is on record as “has not been confirmed at this time” and the “improvement of neuropsychiatric symptoms accompanying dementia” value is listed as “effective”. For the same compound, in the data set with dementia (human, in vivo), the clinical effect entry is on record as “confirmed” and the “effect on severe dementia” value is given as “confirmed”.

For the compound `CC(=O)OC(C)C(=O)OCC[N+](C)(C)C.Cc1ccc(S(=O)(=O)[O-])cc1` (stereo not drawn) [ALT, α-acetoxy-α-methylaceticacid trimethylammonioethyl ester toluene-4-sulfonate], in data set [2], the Appearance result is “No change” and the Decomposition percentage is 0.5%. This compound also showed an LD50 in data set [3] of 657 mg/kg. Besides, the Hygroscopicity in data set [4] was 0.6%.
